The subject of this assay is recombinant NL4-3 virus (Renilla luciferase) in MT-2 cells. Briefly: HIV cell culture assay (antiviral activity, luciferase readout in infected MT-2 cells). The format is cell-based. The conditions noted are these: Renilla. As for the experimental part:
HIV cell culture assay—MT-2 cells, 293T cells and the proviral DNA clone of NL4-3 virus were obtained from the NIH AIDS Research and Reference Reagent Program. MT-2 cells were propagated in RPMI 1640 media supplemented with 10% heat inactivated fetal bovine serum (FBS), 100 ug/ml penicillin G and up to 100 units/ml streptomycin. The 293T cells were propagated in DMEM media supplemented with 10% heat inactivated FBS, 100 ug/ml penicillin G and 100 ug/ml streptomycin. A recombinant NL4-3 proviral clone, in which a section of the nef gene was replaced with the Renilla luciferase gene, was used to make the reference virus used in these studies. The recombinant virus was prepared through transfection of the recombinant NL4-3 proviral clone into 293T cells using Transit-293 Transfection Reagent from Mirus Bio LLC (Madison, Wis.). Supernatent was harvested after 2-3 days after transfection, and the amount of virus present was titered in MT-2 cells using luciferase enzyme activity as a marker. Luciferase activity was quantitated using the EnduRen Live Cell Substrate from Promega (Madison, Wis.). Antiviral activities of compounds toward the recombinant virus were quantified by measuring luciferase activity in MT-2 cells infected for 4-5 days with the recombinant virus in the presence of serial dilutions of the compound.
The 50% effective concentration (EC50) was calculated by using the exponential form of the median effect equation where (Fa)=1/[1+(ED50/drug conc.)^m](Johnson V A, Byington R T. Infectivity Assay. In Techniques in HIV Research. ed. Aldovini A, Walker B D. 71-76. New York: Stockton Press. 1990).

[1] abbreviates: NL43, read-out: Activity, antiviral activity class, recombinant NL4-3 Renilla luciferase virus in MT-2 cells.
Setting [2] is: NL43, recombinant NL4-3 Renilla luciferase virus in MT-2 cells.

Where two headings read alike, the source gives them in different places.

In the case of `Cc1ccccc1S(=O)(=O)NC(=O)N[C@@H](Cc1ccc(Br)cc1)C(=O)N(C)c1ccc2c(c1)OCO2` [Example 57, (S)—N-(benzo[d][1,3]dioxol-5-yl)-3-(4-bromophenyl)-N-methyl-2-(3-(o-tolylsulfonyl)ureido)propanamide], the EC50 under setting [1] is 1000 to 10000 nM.
Same read-out and setting: the figure for `C=CCOc1ccc(C[C@H](NC(=O)NS(=O)(=O)c2ccccc2C)C(=O)N(C)c2ccc3c(c2)OCO3)cc1` [Example 58, (S)-3-(4-(allyloxy)phenyl)-N-(benzo[d][1,3]dioxol-5-yl)-N-methyl-2-(3-(o-tolylsulfonyl)ureido)propanamide] is 1000 to 10000 nM.
Take `Cc1ccccc1S(=O)(=O)NC(=O)N[C@@H](Cc1ccc(Cl)c(Cl)c1)C(=O)N(C)c1ccc2c(c1)OCO2` [Example 59, (S)—N-(benzo[d][1,3]dioxol-5-yl)-3-(3,4-dichlorophenyl)-N-methyl-2-(3-(o-tolylsulfonyl)ureido)propanamide]: the EC50 was 1000 to 10000 nM under setting [1] and 1040 nM under setting [2].
Taken in the same sequence, the figures for `Cc1ccccc1S(=O)(=O)NC(=O)N[C@@H](Cc1ccc(F)c(F)c1)C(=O)N(C)c1ccc2c(c1)OCO2` [Example 60, (S)—N-(benzo[d][1,3]dioxol-5-yl)-3-(3,4-difluorophenyl)-N-methyl-2-(3-(o-tolylsulfonyl)ureido)propanamide] were 100 to 1000 nM and 230 nM.
As for `Cc1ccccc1S(=O)(=O)NC(=O)N[C@@H](Cc1ccc(C(F)(F)F)cc1)C(=O)N(C)c1ccc2c(c1)OCO2` [Example 61, (S)—N-(benzo[d][1,3]dioxol-5-yl)-N-methyl-2-(3-(o-tolylsulfonyl)ureido)-3-(4-(trifluoromethyl)phenyl)propanamide], the EC50 by setting is: under setting [1], 1000 to 10000 nM; under setting [2], 6620 nM.
On to `Cc1ccccc1S(=O)(=O)NC(=O)N[C@@H](Cc1cccc(C#N)c1)C(=O)N(C)c1ccc2c(c1)OCO2` [Example 62, (S)—N-(benzo[d][1,3]dioxol-5-yl)-3-(3-cyanophenyl)-N-methyl-2-(3-(o-tolylsulfonyl)ureido)propanamide], for which the EC50 under setting [1] lay in the range of 1000 to 10000 nM.
Same read-out and setting: for `Cc1ccccc1S(=O)(=O)NC(=O)N[C@@H](Cc1ccc(C#N)cc1)C(=O)N(C)c1ccc2c(c1)OCO2` [Example 63, (S)—N-(benzo[d][1,3]dioxol-5-yl)-3-(4-cyanophenyl)-N-methyl-2-(3-(o-tolylsulfonyl)ureido)propanamide] the value was 1000 to 10000 nM; for `COC(=O)c1cccc(C[C@H](NC(=O)NS(=O)(=O)c2ccccc2C)C(=O)N(C)c2ccc3c(c2)OCO3)c1` [Example 64, (S)-methyl 3-(3-(benzo[d][1,3]dioxol-5-yl(methyl)amino)-3-oxo-2-(3-(o-tolylsulfonyl)ureido)propyl)benzoate], 1000 to 10000 nM.
`Cc1ccccc1S(=O)(=O)NC(=O)N[C@H](C(=O)N(C)c1ccc2c(c1)OCO2)[C@@H](C)c1ccccc1` [Example 65, (2S,3S)—N-(benzo[d][1,3]dioxol-5-yl)-N-methyl-3-phenyl-2-(3-(o-tolylsulfonyl)ureido)butanamide]: the EC50 under setting [1] fell in the range of 1000 to 10000 nM and the EC50 under setting [2] came out at 6830 nM.
With `Cc1ccccc1S(=O)(=O)NC(=O)N[C@@H](Cc1ccccc1C(N)=O)C(=O)N(C)c1ccc2c(c1)OCO2` [Example 66, (S)-2-(3-(benzo[d][1,3]dioxol-5-yl(methyl)amino)-3-oxo-2-(3-(o-tolylsulfonyl)ureido)propyl)benzamide], the EC50 under setting [2] was above 100000 nM.
On to `Cc1ccccc1S(=O)(=O)NC(=O)N[C@@H](Cc1cc(F)cc(F)c1)C(=O)N(C)c1ccc2c(c1)OCO2` [Example 67, (S)—N-(benzo[d][1,3]dioxol-5-yl)-3-(3,5-difluorophenyl)-N-methyl-2-(3-(o-tolylsulfonyl)ureido)propanamide], for which the EC50 under setting [1] was 100 to 1000 nM.
Consider `Cc1ccccc1S(=O)(=O)NC(=O)N[C@@H](Cc1ccc(OCc2ccccc2)cc1)C(=O)N(C)c1ccc2c(c1)OCO2` [Example 68, (S)—N-(benzo[d][1,3]dioxol-5-yl)-3-(4-(benzyloxy)phenyl)-N-methyl-2-(3-(o-tolylsulfonyl)ureido)propanamide], for which the EC50 under setting [1] is 10000 to 100000 nM and the EC50 under setting [2] is 16000 nM.
As for `Cc1ccccc1S(=O)(=O)NC(=O)N[C@@H](Cc1ccc(-c2ccccc2)cc1)C(=O)N(C)c1ccc2c(c1)OCO2` [Example 69, (S)-3-([1,1′-biphenyl]-4-yl)-N-(benzo[d][1,3]dioxol-5-yl)-N-methyl-2-(3-(o-tolylsulfonyl)ureido)propanamide], the EC50 under setting [1] is 10000 to 100000 nM.
Regarding `Cc1ccccc1S(=O)(=O)NC(=O)N[C@@H](Cc1ccccc1F)C(=O)N(C)c1ccc2c(c1)OCO2` [Example 70, (S)—N-(benzo[d][1,3]dioxol-5-yl)-3-(2-fluorophenyl)-N-methyl-2-(3-(o-tolylsulfonyl)ureido)propanamide], the EC50 under setting [1] lay within 100 to 1000 nM.
Same read-out and setting: the figure for `Cc1ccccc1S(=O)(=O)NC(=O)N[C@@H](Cc1cccc(C(F)(F)F)c1)C(=O)N(C)c1ccc2c(c1)OCO2` [Example 71, (S)—N-(benzo[d][1,3]dioxol-5-yl)-N-methyl-2-(3-(o-tolylsulfonyl)ureido)-3-(3-(trifluoromethyl)phenyl)propanamide] is 100 to 1000 nM.
Take `Cc1ccc(C[C@H](NC(=O)NS(=O)(=O)c2ccccc2C)C(=O)N(C)c2ccc3c(c2)OCO3)cc1` [Example 72, (S)—N-(benzo[d][1,3]dioxol-5-yl)-N-methyl-3-(p-tolyl)-2-(3-(o-tolylsulfonyl)ureido)propanamide]: the EC50 was 100 to 1000 nM under setting [1] and 580 nM under setting [2].
On to `CC(=O)Nc1ccc(C[C@H](NC(=O)NS(=O)(=O)c2ccccc2C)C(=O)N(C)c2ccc3c(c2)OCO3)cc1` [Example 73, (S)-3-(4-acetamidophenyl)-N-(benzo[d][1,3]dioxol-5-yl)-N-methyl-2-(3-(o-tolylsulfonyl)ureido)propanamide], for which the EC50 under setting [2] was above 100000 nM.
With `Cc1ccccc1S(=O)(=O)NC(=O)N[C@@H](Cc1ccc(Cl)cc1Cl)C(=O)N(C)c1ccc2c(c1)OCO2` [Example 74, (S)—N-(benzo[d][1,3]dioxol-5-yl)-3-(2,4-dichlorophenyl)-N-methyl-2-(3-(o-tolylsulfonyl)ureido)propanamide], the EC50 is 1000 to 10000 nM under setting [1] and 3880 nM under setting [2].
Taken in the same sequence, the figures for `Cc1ccccc1S(=O)(=O)NC(=O)N[C@@H](Cc1cc(F)c(F)cc1F)C(=O)N(C)c1ccc2c(c1)OCO2` [Example 75, (S)—N-(benzo[d][1,3]dioxol-5-yl)-N-methyl-2-(3-(o-tolylsulfonyl)ureido)-3-(2,4,5-trifluorophenyl)propanamide] were 100 to 1000 nM and 290 nM.
`Cc1ccccc1S(=O)(=O)NC(=O)N[C@@H](Cc1ccccc1Br)C(=O)N(C)c1ccc2c(c1)OCO2` [Example 76, (S)—N-(benzo[d][1,3]dioxol-5-yl)-3-(2-bromophenyl)-N-methyl-2-(3-(o-tolylsulfonyl)ureido)propanamide]: the EC50 under setting [1] was in the range of 1000 to 10000 nM.
Turning to `Cc1ccccc1S(=O)(=O)NC(=O)N[C@@H](Cc1ccccc1C#N)C(=O)N(C)c1ccc2c(c1)OCO2` [Example 77, (S)—N-(benzo[d][1,3]dioxol-5-yl)-3-(2-cyanophenyl)-N-methyl-2-(3-(o-tolylsulfonyl)ureido)propanamide], the EC50 under setting [1] was 1000 to 10000 nM.
As for `COc1cccc(C[C@H](NC(=O)NS(=O)(=O)c2ccccc2C)C(=O)N(C)c2ccc3c(c2)OCO3)c1` [Example 78, (S)—N-(benzo[d][1,3]dioxol-5-yl)-3-(3-methoxyphenyl)-N-methyl-2-(3-(o-tolylsulfonyl)ureido)propanamide], the EC50 under setting [1] was in the range of 100 to 1000 nM.
On to `Cc1ccccc1S(=O)(=O)NC(=O)N[C@@]1(C(=O)N(C)c2ccc3c(c2)OCO3)C[C@H]1c1ccccc1` [Example 79, (1S,2S)—N-(benzo[d][1,3]dioxol-5-yl)-N-methyl-2-phenyl-1-(3-(o-tolylsulfonyl)ureido)cyclopropanecarboxamide], for which, under setting [1], the EC50 fell in the range of 10000 to 100000 nM.
Turning to `Cc1ccccc1S(=O)(=O)NC(=O)N[C@@H](Cc1cccc(C(N)=O)c1)C(=O)N(C)c1ccc2c(c1)OCO2` [Example 80, (S)-3-(3-(benzo[d][1,3]dioxol-5-yl(methyl)amino)-3-oxo-2-(3-(o-tolylsulfonyl)ureido)propyl)benzamide], the EC50 under setting [2] was above 100000 nM.
Consider `Cc1ccccc1S(=O)(=O)NC(=O)N[C@@H](Cc1cccc(S(=O)(=O)N2CCOCC2)c1)C(=O)N(C)c1ccc2c(c1)OCO2` [Example 81, (S)—N-(benzo[d][1,3]dioxol-5-yl)-N-methyl-3-(3-(morpholinosulfonyl)phenyl)-2-(3-(o-tolylsulfonyl)ureido)propanamide], for which the EC50 under setting [1] was 10000 to 100000 nM.
The same measure, in the same setting: the figure for `Cc1ccccc1S(=O)(=O)NC(=O)N[C@@H](Cc1ccc(O)cc1)C(=O)N(C)c1ccc2c(c1)OCO2` [Example 82, (S)—N-(benzo[d][1,3]dioxol-5-yl)-3-(4-hydroxyphenyl)-N-methyl-2-(3-(o-tolylsulfonyl)ureido)propanamide] is 1000 to 10000 nM.
Regarding `Cc1ccccc1S(=O)(=O)NC(=O)N[C@@H](Cc1cccc2ccccc12)C(=O)N(C)c1ccc2c(c1)OCO2` [Example 83, (S)—N-(benzo[d][1,3]dioxol-5-yl)-N-methyl-3-(naphthalen-1-yl)-2-(3-(o-tolylsulfonyl)ureido)propanamide], the EC50 runs as follows: under setting [1], 1000 to 10000 nM; under setting [2], 4280 nM.

Values taken from US10035760B2, “Inhibitors of human immunodeficiency virus replication” (priority 2013, dated 2018).
